Test results from the NIST ThermoML archive (doi:10.1016/j.jct.2019.02.010).
Numbers after ± are expanded uncertainties.

Tests used:
[1] = xn = mol fraction of the nth substance listed; conditions: for viscosity / mass density: 101.3 kPa, Liquid; for viscosity: Falling or rolling sphere viscometry; for mass density: Vibrating tube method; for surface tension liquid-gas: 298.15 K, Ring tensiometer
[2] = 101.33 kPa; for viscosity: Falling or rolling sphere viscometry; for mass density: Vibrating tube method

For CC(=O)CCC(=O)O [4-oxopentanoic acid] + C[N+](C)(C)CCO.[Cl-], the viscosity ([1]; 293.15 K, x2 = 0.333) was 362.08 ± 49 mPa·s, the mass density ([1]; 293.15 K, x2 = 0.333) was 1141.9 ± 8.1 kg/m3 and the surface tension liquid-gas ([1]; x2 = 0.333) was 39.95 ± 2.1 mN/m. For the same molecule, the viscosity ([1]; 303.15 K, x2 = 0.333) was 183.72 ± 23 mPa·s, the mass density ([1]; 303.15 K, x2 = 0.333) was 1135.2 ± 8.1 kg/m3 and the viscosity ([1]; 313.15 K, x2 = 0.333) was 103.46 ± 13 mPa·s. For the same molecule, the mass density ([1]; 313.15 K, x2 = 0.333) was 1128.5 ± 8.1 kg/m3, the viscosity ([1]; 323.15 K, x2 = 0.333) was 62.8 ± 7.6 mPa·s and the mass density ([1]; 323.15 K, x2 = 0.333) was 1121.9 ± 8.1 kg/m3. The viscosity ([1]; 333.15 K, x2 = 0.333) was 39.59 ± 4.8 mPa·s and the mass density ([1]; 333.15 K, x2 = 0.333) was 1115.3 ± 8.1 kg/m3.
For C[N+](C)(C)CCO.[Cl-] [choline chloride] + OCCO, the viscosity ([1]; 293.15 K, x1 = 0.334) was 58.81 ± 7.1 mPa·s, the mass density ([1]; 293.15 K, x1 = 0.334) was 1119.5 ± 8.1 kg/m3 and the surface tension liquid-gas ([1]; x1 = 0.334) was 45.66 ± 2.1 mN/m. For the same molecule, the viscosity ([1]; 303.15 K, x1 = 0.334) was 38.9 ± 4.7 mPa·s, the mass density ([1]; 303.15 K, x1 = 0.334) was 1113.9 ± 8.1 kg/m3 and the viscosity ([1]; 313.15 K, x1 = 0.334) was 27.04 ± 3.2 mPa·s. The mass density ([1]; 313.15 K, x1 = 0.334) was 1108.1 ± 8.1 kg/m3, the viscosity ([1]; 323.15 K, x1 = 0.334) was 19.74 ± 2.4 mPa·s and the mass density ([1]; 323.15 K, x1 = 0.334) was 1102.5 ± 8.1 kg/m3. For the same molecule, the viscosity ([1]; 333.15 K, x1 = 0.334) was 14.69 ± 1.8 mPa·s and the mass density ([1]; 333.15 K, x1 = 0.334) was 1096.9 ± 8.1 kg/m3.
CCCCO [butan-1-ol] showed a viscosity ([2]; 293.15 K, Liquid) of 2.95 ± 0.35 mPa·s, a mass density ([2]; 293.15 K, Liquid) of 809.5 ± 8 kg/m3 and a viscosity ([2]; 303.15 K, Liquid) of 2.28 ± 0.27 mPa·s. For the same molecule, the mass density ([2]; 303.15 K, Liquid) was 801.9 ± 8 kg/m3, the viscosity ([2]; 313.15 K, Liquid) was 1.79 ± 0.22 mPa·s and the mass density ([2]; 313.15 K, Liquid) was 794.1 ± 8 kg/m3. For the same molecule, the viscosity ([2]; 323.15 K, Liquid) was 1.42 ± 0.17 mPa·s, the mass density ([2]; 323.15 K, Liquid) was 786.2 ± 8 kg/m3 and the viscosity ([2]; 333.15 K, Liquid) was 1.15 ± 0.14 mPa·s. For the same molecule, the mass density ([2]; 333.15 K, Liquid) was 778.1 ± 8 kg/m3.
Work on C[N+](C)(C)CCO.[Cl-] [choline chloride] + Oc1ccccc1 yielded a viscosity ([1]; 293.15 K, x1 = 0.333) of 129.98 ± 16 mPa·s, a mass density ([1]; 293.15 K, x1 = 0.333) of 1099.4 ± 8.1 kg/m3 and a surface tension liquid-gas ([1]; x1 = 0.333) of 35.46 ± 2.1 mN/m. It also gave a viscosity ([1]; 303.15 K, x1 = 0.333) of 74 ± 8.9 mPa·s, a mass density ([1]; 303.15 K, x1 = 0.333) of 1093.4 ± 8.1 kg/m3 and a viscosity ([1]; 313.15 K, x1 = 0.333) of 44.33 ± 5.3 mPa·s. For the same molecule, the mass density ([1]; 313.15 K, x1 = 0.333) was 1087.4 ± 8.1 kg/m3, the viscosity ([1]; 323.15 K, x1 = 0.333) was 30.23 ± 3.6 mPa·s and the mass density ([1]; 323.15 K, x1 = 0.333) was 1081.5 ± 8.1 kg/m3. The viscosity ([1]; 333.15 K, x1 = 0.333) was 21.5 ± 2.6 mPa·s and the mass density ([1]; 333.15 K, x1 = 0.333) was 1075.6 ± 8.1 kg/m3.
In the case of CC(=O)CCC(=O)O [4-oxopentanoic acid], the mass density ([2]; 293.15 K, Metastable liquid) is reported as 1140.1 ± 8.1 kg/m3, the mass density ([2]; 303.15 K, Metastable liquid) is reported as 1131.6 ± 8.1 kg/m3 and the mass density ([2]; 313.15 K, Metastable liquid) is reported as 1123 ± 8.1 kg/m3. For the same molecule, the mass density ([2]; 323.15 K, Metastable liquid) was 1114.5 ± 8.1 kg/m3, the mass density ([2]; 333.15 K, Metastable liquid) was 1105.9 ± 8.1 kg/m3 and the mass density ([2]; 343.15 K, Metastable liquid) was 1097.4 ± 8.1 kg/m3.
